Key:
CDK9/cyclin T1 = CDK9/cyclin T1 (Homo sapiens, UniProt P50750); assay: Kinase assay, radioactive phosphate incorporation, CDK9/cyclin T1; type: biochemical; settings: 100 μM ATP, 30° C.; read-out: Kinase inhibition IC50 CDK9/cyclin T1
Procedure: (§1) The compounds from the examples above were investigated for their ability to inhibit the enzymatic activity of various protein kinases. This was achieved by measurement of incorporation of radioactive phosphate from ATP into appropriate polypeptide substrates. Recombinant protein kinases and kinase complexes were produced or obtained commercially. Assays were performed using 96-well plates and appropriate assay buffers (typically 25 mM β-glycerophosphate, 20 mM MOPS, 5 MM EGTA, 1 mM DTT, 1 mM Na3VO3, pH 7.4), into which were added 2-4 μg of active enzyme with appropriate substrates. The reactions were initiated by addition of Mg/ATP mix (15 mM MgCl2+100 μM ATP with 30-50 kBq per well of [γ-^32P]-ATP) and mixtures incubated as required at 30° C. Reactions were stopped on ice, followed by filtration through p81 filterplates or GF/C filterplates (Whatman Polyfiltronics, Kent, UK). After washing 3 times with 75 mM aq orthophosphoric acid, plates were dried, scintillant added and incorporated radioactivity measured in a scintillation counter (TopCount, Packard Instruments, Pangbourne, Berks, UK). Compounds for kinase assay were made up as 10 mM stocks in DMSO and diluted into 10% DMSO in assay buffer.

A549 = assay: 72-h MTT cytotoxicity assay, A549; type: cell-based; settings: Homo sapiens, read-out: 72-h MTT IC50 A549, A549 cell line
Procedure: (§2) The compounds from the examples above were subjected to a standard cellular proliferation assay using human tumour cell lines obtained from the ATCC (American Type Culture Collection, 10801 University Boulevard, Manessas, Va. 20110-2209, USA). Standard 72-h MTT (thiazolyl blue; 3-[4,5-dimethylthiazol-2-yl]-2,5-diphenyltetrazolium bromide) assays were performed. In short: cells were seeded into 96-well plates according to doubling time and incubated overnight at 37° C. Test compounds were made up in DMSO and a 1/3 dilution series prepared in 100 μL cell media, added to cells (in triplicates) and incubated for 72 ho at 37° C. MTT was made up as a stock of 5 mg/mL in cell media and filter-sterilised. Media was removed from cells followed by a wash with 200 μL PBS. MTT solution was then added at 20 μL per well and incubated in the dark at 37° C. for 4 h. MTT solution was removed and cells again washed with 200 μL PBS. MTT dye was solubilised with 200 μL per well of DMSO with agitation.

HT29 = assay: 72-h MTT cytotoxicity assay, HT29; type: cell-based; settings: Homo sapiens, HT-29, read-out: 72-h MTT IC50 HT29, HT29 cell line
Procedure: as §2

Saos-2 = assay: 72-h MTT cytotoxicity assay, Saos-2; type: cell-based; settings: Homo sapiens, read-out: 72-h MTT IC50 Saos-2, Saos-2 cell line
Procedure: as §2

[1] = test system: transformed human cell lines (A549, HT29, Saos-2); assay: 72-h MTT cytotoxicity assay, average of cell lines; type: cell-based; settings: read-out: 72-h MTT IC50 Average, average of A549, HT29, Saos-2
Procedure: as §2

CDK2/cyclin E = CDK2/cyclin E (Homo sapiens, UniProt P24941); assay: Kinase assay, radioactive phosphate incorporation, CDK2/cyclin E; type: biochemical; settings: 100 μM ATP, 30° C.; read-out: Kinase inhibition IC50 CDK2/cyclin E
Procedure: as §1

CDK7/cyclin H = CDK7/cyclin H (Homo sapiens, UniProt P50613); assay: Kinase assay, radioactive phosphate incorporation, CDK7/cyclin H; type: biochemical; settings: 100 μM ATP, 30° C.; read-out: Kinase inhibition IC50 CDK7/cyclin H
Procedure: as §1

GSK3β = GSK3β (Homo sapiens, UniProt P49841); assay: Kinase assay, radioactive phosphate incorporation, GSK3β; type: biochemical; settings: 100 μM ATP, 30° C.; read-out: Kinase inhibition IC50 GSK3β
Procedure: as §1

CDK9/cyclin T1, sequence (P50750 whole entry, species assumed): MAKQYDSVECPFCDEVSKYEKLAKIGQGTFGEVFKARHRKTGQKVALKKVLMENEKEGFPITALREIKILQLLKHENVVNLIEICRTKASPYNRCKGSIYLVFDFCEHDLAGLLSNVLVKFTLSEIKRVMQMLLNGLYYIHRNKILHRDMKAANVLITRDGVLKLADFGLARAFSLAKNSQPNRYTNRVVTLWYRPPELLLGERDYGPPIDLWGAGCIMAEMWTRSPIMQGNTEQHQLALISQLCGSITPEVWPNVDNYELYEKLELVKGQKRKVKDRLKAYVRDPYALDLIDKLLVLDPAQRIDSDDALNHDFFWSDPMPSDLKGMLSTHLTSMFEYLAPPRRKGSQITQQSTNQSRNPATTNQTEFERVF
CDK9/cyclin T1, sequence (O60563 whole entry partner, species assumed): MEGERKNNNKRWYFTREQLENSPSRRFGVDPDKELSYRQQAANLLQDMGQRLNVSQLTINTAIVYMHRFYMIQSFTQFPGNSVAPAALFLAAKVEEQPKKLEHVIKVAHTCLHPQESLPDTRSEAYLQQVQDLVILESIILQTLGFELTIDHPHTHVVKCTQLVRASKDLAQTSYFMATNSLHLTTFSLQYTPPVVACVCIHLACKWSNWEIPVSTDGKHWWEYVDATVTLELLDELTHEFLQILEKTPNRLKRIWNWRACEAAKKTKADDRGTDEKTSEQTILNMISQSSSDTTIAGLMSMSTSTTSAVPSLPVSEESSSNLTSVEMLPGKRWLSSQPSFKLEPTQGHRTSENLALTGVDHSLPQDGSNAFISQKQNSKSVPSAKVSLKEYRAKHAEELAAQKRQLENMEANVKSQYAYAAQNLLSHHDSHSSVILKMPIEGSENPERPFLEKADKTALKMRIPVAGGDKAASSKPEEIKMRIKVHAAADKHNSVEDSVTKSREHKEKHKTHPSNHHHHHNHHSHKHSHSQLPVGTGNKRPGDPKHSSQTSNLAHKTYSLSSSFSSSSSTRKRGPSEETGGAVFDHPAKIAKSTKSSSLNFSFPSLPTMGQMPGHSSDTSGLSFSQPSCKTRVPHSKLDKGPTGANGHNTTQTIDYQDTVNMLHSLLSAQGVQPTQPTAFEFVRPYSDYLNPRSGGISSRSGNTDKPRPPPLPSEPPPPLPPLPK
GSK3β, sequence (P49841 whole entry, species assumed): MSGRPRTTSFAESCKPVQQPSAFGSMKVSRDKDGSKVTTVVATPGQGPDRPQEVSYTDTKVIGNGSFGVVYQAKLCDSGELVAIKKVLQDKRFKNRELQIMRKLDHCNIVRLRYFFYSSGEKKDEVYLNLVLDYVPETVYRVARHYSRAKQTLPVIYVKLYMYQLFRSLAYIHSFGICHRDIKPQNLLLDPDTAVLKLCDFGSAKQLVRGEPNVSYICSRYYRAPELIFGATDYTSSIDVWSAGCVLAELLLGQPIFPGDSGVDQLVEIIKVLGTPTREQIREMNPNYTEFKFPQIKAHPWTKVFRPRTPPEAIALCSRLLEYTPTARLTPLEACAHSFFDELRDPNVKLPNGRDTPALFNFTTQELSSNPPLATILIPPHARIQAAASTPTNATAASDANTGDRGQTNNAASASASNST
CDK7/cyclin H, sequence (P50613 whole entry, species assumed): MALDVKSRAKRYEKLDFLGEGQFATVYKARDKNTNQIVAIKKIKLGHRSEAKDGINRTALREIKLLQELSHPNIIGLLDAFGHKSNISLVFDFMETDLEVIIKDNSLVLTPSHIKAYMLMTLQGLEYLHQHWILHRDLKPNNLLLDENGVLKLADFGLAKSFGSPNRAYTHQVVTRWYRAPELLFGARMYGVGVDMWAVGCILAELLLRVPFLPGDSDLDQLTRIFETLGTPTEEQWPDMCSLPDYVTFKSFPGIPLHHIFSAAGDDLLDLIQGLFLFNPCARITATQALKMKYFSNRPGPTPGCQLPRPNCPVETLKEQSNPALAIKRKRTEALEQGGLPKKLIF
CDK7/cyclin H, sequence (P51946 whole entry partner, species assumed): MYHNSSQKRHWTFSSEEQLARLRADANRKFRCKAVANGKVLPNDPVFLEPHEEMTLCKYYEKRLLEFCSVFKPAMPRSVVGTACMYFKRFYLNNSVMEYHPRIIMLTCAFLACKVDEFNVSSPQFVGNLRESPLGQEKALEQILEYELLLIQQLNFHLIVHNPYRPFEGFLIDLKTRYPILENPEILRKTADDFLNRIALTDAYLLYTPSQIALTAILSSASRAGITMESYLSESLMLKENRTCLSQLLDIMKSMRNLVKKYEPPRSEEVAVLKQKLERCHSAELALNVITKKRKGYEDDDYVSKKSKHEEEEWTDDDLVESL

Row | Compound | IC50 (CDK9/cyclin T1) [µM] | IC50 (CDK2/cyclin E) [µM] | IC50 (CDK7/cyclin H) [µM] | IC50 (GSK3β) [µM] | IC50 (A549) [µM] | IC50 (HT29) [µM] | IC50 (Saos-2) [µM] | IC50 [1] [µM]
1 | CN(Cc1cccc(-c2ccnc(Nc3cccc([N+](=O)[O-])c3)n2)c1)S(=O)(=O)c1cccc([N+](=O)[O-])c1 [Compound 85, N-Methyl-3-nitro-N-{3-[2-(3-nitro-phenylamino)-pyrimidin-4-yl]-benzyl}-benzenesulfonamide] | 0.4 | – | – | – | 76.9 | 10.4 | 44.6 | 44 ± 33.3
2 | CC(=O)N(Cc1cccc(-c2ccnc(Nc3cccc([N+](=O)[O-])c3)n2)c1)C(C)C [Compound 78, N-Isopropyl-N-{3-[2-(3-nitro-phenylamino)-pyrimidin-4-yl]-benzyl}-acetamide] | – | – | – | – | 3.7 | 0.96 | 5.4 | 3.4 ± 2.2
3 | O=[N+]([O-])c1cccc(Nc2nccc(-c3cccc(O)c3)n2)c1 [Compound 55, 3-[2-(3-Nitro-phenylamino)-pyrimidin-4-yl]-phenol] | 0.03 | 0.04 | 0.31 | 0.003 | – | – | – | –
4 | Nc1cccc(-c2ccnc(Nc3cccc([N+](=O)[O-])c3)n2)c1 [Compound 19, [4-(3-Amino-phenyl)-pyrimidin-2-yl]-(3-nitro-phenyl)-amine] | – | – | 2.5 | 0.055 | – | – | – | –
5 | Oc1cccc(-c2ccnc(Nc3cccc(F)c3)n2)c1 [Compound 57, 3-[2-(3-Fluoro-phenylamino)-pyrimidin-4-yl]-phenol] | 0.18 | 0.21 | 1.3 | 0.054 | – | – | – | –
6 | Oc1cccc(Nc2nccc(-c3ccc(Cl)c(Cl)c3)n2)c1 [Compound 22, 3-[4-(3,4-Dichloro-phenyl)-pyrimidin-2-ylamino]-phenol] | – | – | – | – | 43.5 | 85.2 | 100 | 76.2 ± 29.3
7 | CC(=O)N(C)c1cccc(-c2ccnc(Nc3ccc(O)cc3)n2)c1 [Compound 12, N-{3-[2-(4-Hydroxy-phenylamino)-pyrimidin-4-yl]-phenyl}-N-methyl-acetamide] | – | 0.24 | – | – | – | – | – | –
8 | Oc1cccc(Nc2nccc(-c3cccc(O)c3)n2)c1 [Compound 56] | 0.07 | 0.24 | 2.1 | 0.07 | – | – | – | –
9 | COc1ccc(Nc2nccc(-c3ccc(Cl)c(Cl)c3)n2)cn1 [Compound 49, [4-(3,4-Dichloro-phenyl)-pyrimidin-2-yl]-(6-methoxy-pyridin-3-yl)-amine] | – | – | – | 5.2 | – | – | – | –
10 | CCN(C(C)=O)c1cccc(-c2ccnc(Nc3ccc([N+](=O)[O-])cc3)n2)c1 [Compound 24, N-Ethyl-N-{3-[2-(4-nitro-phenylamino)-pyrimidin-4-yl]-phenyl}-acetamide] | – | – | – | – | 100 | 7.8 | 80.4 | 62.7 ± 48.6
11 | COCCOc1ccc(Nc2nccc(-c3cccc(N)c3)n2)cc1 [Compound 3, [4-(3-Amino-phenyl)-pyrimidin-2-yl]-[4-(2-methoxy-ethoxy)-phenyl]-amine] | 0.018 | – | – | – | 1.8 | 3.6 | 5.2 | 3.5 ± 1.7
12 | O=[N+]([O-])c1cccc(-c2ccnc(Nc3cccc(O)c3)n2)c1 [Compound 64, 3-[4-(3-Nitro-phenyl)-pyrimidin-2-ylamino]-phenol] | – | 0.7 | – | 0.06 | – | – | – | –
13 | Cc1ccc(C)c(-c2ccnc(Nc3cccc(O)c3)n2)c1 [Compound 62, 3-[4-(2,5-Dimethyl-phenyl)-pyrimidin-2-ylamino]-phenol] | – | 1.8 | – | – | – | – | – | –
14 | c1ccc(Nc2nccc(-c3ccccc3)n2)cc1 [Compound 37, Phenyl-(4-phenyl-pyrimidin-2-yl)-amine] | – | 18 | – | – | 22 | 15.2 | 60.7 | 32.6 ± 24.5
15 | O=[N+]([O-])c1cccc(Nc2nccc(-c3ccc(Cl)c(Cl)c3)n2)c1 [Compound 31, [4-(3,4-Dichloro-phenyl)-pyrimidin-2-yl]-(3-nitro-phenyl)-amine] | – | – | – | 4.5 | – | – | – | –
16 | CC(=O)Nc1cccc(-c2ccnc(Nc3cccc(CO)c3)n2)c1 [Compound 60, N-{3-[2-(3-Hydroxymethyl-phenylamino)-pyrimidin-4-yl]-phenyl}-acetamide] | 0.26 | 1.6 | 3.8 | 0.51 | – | – | – | –
17 | O=[N+]([O-])c1ccc(Nc2nccc(-c3cccc(Cn4cncn4)c3)n2)cc1 [Compound 41, (4-Nitro-phenyl)-[4-(3-[1,2,4]triazol-1-ylmethyl-phenyl)-pyrimidin-2-yl]-amine] | 0.92 | 0.42 | 5.5 | 0.043 | – | – | – | –
18 | COc1ccc(OC)c(-c2ccnc(Nc3ccc(OC)nc3)n2)c1 [Compound 52, [4-(2,5-Dimethoxy-phenyl)-pyrimidin-2-yl]-(6-methoxy-pyridin-3-yl)-amine] | 16 | – | – | – | 20.5 | 10.8 | 14.9 | 15.4 ± 4.9
19 | Cc1ccc(C)c(-c2ccnc(Nc3cccc([N+](=O)[O-])c3)n2)c1 [Compound 61, [4-(2,5-Dimethyl-phenyl)-pyrimidin-2-yl]-(3-nitro-phenyl)-amine] | – | 1.3 | – | 0.57 | – | – | – | –

Continued, in another order:

Row | IC50 (CDK9/cyclin T1) [µM] | IC50 (CDK2/cyclin E) [µM] | IC50 (CDK7/cyclin H) [µM] | IC50 (GSK3β) [µM] | Compound | IC50 (A549) [µM] | IC50 (HT29) [µM] | IC50 (Saos-2) [µM] | IC50 [1] [µM]
20 | – | 2.7 | – | – | COc1cc(Nc2nccc(-c3cccc(NC(C)=O)c3)n2)cc(OC)c1 [Compound 68, N-{3-[2-(3,5-Dimethoxy-phenylamino)-pyrimidin-4-yl]-phenyl}-acetamide] | – | – | – | –
21 | 0.04 | 0.31 | 0.55 | 0.14 | CC(=O)Nc1cccc(-c2ccnc(Nc3cccc([N+](=O)[O-])c3)n2)c1 [Compound 69, N-{3-[2-(3-Nitro-phenylamino)-pyrimidin-4-yl]-phenyl}-acetamide] | – | – | – | –
22 | 0.16 | – | – | 0.27 | O=[N+]([O-])c1cccc(Nc2nccc(-c3cccc(C(F)(F)F)c3)n2)c1 [Compound 97, (3-Nitro-phenyl)-[4-(3-trifluoromethyl-phenyl)-pyrimidin-2-yl]-amine] | – | – | – | –
23 | – | 2.8 | – | 0.63 | CC(=O)Nc1cccc(-c2ccnc(Nc3ccccc3)n2)c1 [Compound 66, N-[3-(2-Phenylamino-pyrimidin-4-yl)-phenyl]-acetamide] | – | – | – | –
24 | 0.16 | 0.78 | 4.4 | 0.15 | CC(=O)Nc1cccc(-c2ccnc(Nc3cccc(O)c3)n2)c1 [Compound 67, N-{3-[2-(3-Hydroxy-phenylamino)-pyrimidin-4-yl]-phenyl}-acetamide] | – | – | – | –
25 | – | – | 3.8 | 0.05 | COc1ccc(Nc2nccc(-c3cccc(O)c3)n2)cn1 [Compound 74, 3-[2-(6-Methoxy-pyridin-3-ylamino)-pyrimidin-4-yl]-phenol] | – | – | – | –
26 | 0.17 | – | – | – | O=[N+]([O-])c1cccc(Nc2nccc(-c3cc(F)ccc3F)n2)c1 [Compound 123, [4-(2,5-Difluoro-phenyl)-pyrimidin-2-yl]-(3-nitro-phenyl)-amine] | – | – | – | –
27 | 0.65 | – | 1.4 | – | OCc1cc(CO)cc(Nc2nccc(-c3cccc(CN4CCCCC4CO)c3)n2)c1 (centres unmarked) [Compound 107, (1-{3-[2-(3,5-Bis-hydroxymethyl-phenylamino)-pyrimidin-4-yl]-benzyl}-piperidin-2-yl)-methanol] | – | – | – | –
28 | 0.003 | – | – | 0.07 | COc1cccc(-c2ccnc(Nc3cccc([N+](=O)[O-])c3)n2)c1 [Compound 87, [4-(3-Methoxy-phenyl)-pyrimidin-2-yl]-(3-nitro-phenyl)-amine] | – | – | – | –
29 | 0.19 | – | 1.7 | – | OCC1CCCCN1Cc1cccc(-c2ccnc(Nc3ccc(O)cc3)n2)c1 (centres unmarked) [Compound 106, 4-{4-[3-(2-Hydroxymethyl-piperidin-1-ylmethyl)-phenyl]-pyrimidin-2-ylamino}-phenol] | – | – | – | –
30 | 0.04 | – | – | 0.14 | COc1ccc(-c2ccnc(Nc3cccc(F)c3)n2)cc1 [Compound 119, (3-Fluoro-phenyl)-[4-(4-methoxy-phenyl)-pyrimidin-2-yl]-amine] | – | – | – | –
